Measurements published in ChEMBL document CHEMBL4130640, “Optimizing a Weakly Binding Fragment into a Potent RORγt Inverse Agonist with Efficacy in an in Vivo Inflammation Model” (J Med Chem, 2018).
In brackets after ≈: the same amount, converted by molar mass.

Legend:
[1] = pampa
physchem = details: aqueous solution, pH 6.8

## C[C@H](Oc1ncc(NC(=O)Cc2ccncc2)cc1Cl)c1ccccc1
[1]
  log(permeability): -3.7
physchem
  solubility thermodynamic: 28 µM (≈ 10.3 µg/mL)
